Assay results: patent US20050244936A1, “Hydantoin-racemase” (DEGUSSA AG, priority 1999, published 2005)

Experiments:
HyuA = experiment: Substrate specificity of HyuA: racemization of 5-substituted hydantoins by ORD polarimetry; assay type: biochemical, Arthrobacter aurescens DSM 3747; settings: substrate conc. 0.9 mM; 100% racemase activity corresponds to 313 μ/mg by standard assay
Procedure: Racemization of the 5-substituted hydantoins BH, IMH and MTEH by HyuA was examined (Tab. 2).
Enzyme assays. Racemization of L-BH was measured by ORD-polarimerty (Model 341, Perkin Elmer Bodenseewerk, Überlingen, Germany) at a wavelength of 295 nm in the standard assay for racemase enzyme activity. 3 MM L-BH was dissolved in 0.1 M Tris, pH 3 at 45° C. in an ultrasonic waterbath, cooled to room temperature and the pH adjusted to pH 8.5 with 3 M NaOH. To 1 ml substrate solution 0.1 ml enzyme, diluted in 0.1 M Tris, pH 8.5, was added and the change in optical rotation determined at 37° C. by polarimetry (Teves et al., Fresenius' J. Anal. Chem. 1999, 363, 738-743). The racemization of MTEH and IMH by. HyuA was determined at substrate concentrations of 0.9 mM and recorded by ORD at 253 nm and 334 nm. The specific activities were calculated from initial reaction rates which were determined according to Teves et al. (1999). For determination of enzyme activity by HPLC, 1 mM L-IMH was dissolved as described above. The mixture containing 900 μl enzyme solution was incubated 5 min at 37° C. The reaction was stopped by addition of 400 μl 14% trichloroacetic acid and centrifugation in an Eppendorf centrifuge at full speed. 100 μl of the sample were diluted with 0.9 ml 0.1 M TrisHCl, pH 8.5, and D-IMH and L-IMH in the supernatant were separated by HPLC (Thermoseparation Products, Darmstadt, Germany) by injection of 20 μl sample into a Chiralpak WH-column (0.46×25 cm; Daicel Chemicals Industris LTD, Griesheim, Germany). The column was equilibrated with 0.25 mM CuSO4, pH 5.5. The flow rate was 1 ml/min at 50° C. and IMH detected at 254 nm. The chemical racemization of the substrate was taken into account. Racemization of […] substrate per minute was defined as one unit enzyme.

racemase HyuA = experiment: Initial velocities at different concentrations of L-MTEH (kinetic plot); assay type: biochemical, Arthrobacter aurescens DSM 3747; settings: FIG. 6
Procedure: The KM values of IMH and BH could not be determined due to the limited solubility of the substrates. Instead the initial velocities at different concentrations of L-MTEH were measured. […] Even at low substrate concentrations (>5 mM) inhibition is observed.
Enzyme assays. Racemization of L-BH was measured by ORD-polarimerty (Model 341, Perkin Elmer Bodenseewerk, Überlingen, Germany) at a wavelength of 295 nm in the standard assay for racemase enzyme activity. 3 MM L-BH was dissolved in 0.1 M Tris, pH 3 at 45° C. in an ultrasonic waterbath, cooled to room temperature and the pH adjusted to pH 8.5 with 3 M NaOH. To 1 ml substrate solution 0.1 ml enzyme, diluted in 0.1 M Tris, pH 8.5, was added and the change in optical rotation determined at 37° C. by polarimetry (Teves et al., Fresenius' J. Anal. Chem. 1999, 363, 738-743). The racemization of MTEH and IMH by. HyuA was determined at substrate concentrations of 0.9 mM and recorded by ORD at 253 nm and 334 nm. The specific activities were calculated from initial reaction rates which were determined according to Teves et al. (1999). For determination of enzyme activity by HPLC, 1 mM L-IMH was dissolved as described above. The mixture containing 900 μl enzyme solution was incubated 5 min at 37° C. […] The flow rate was 1 ml/min at 50° C. and IMH detected at 254 nm. […]

[1] = room temperature, pH 8.5, 20 hour; cited from earlier work

substrate concentration at which inhibition of the racemase is observed (racemase HyuA) [mM] | SMILES | Relative Activity (HyuA) [%] | fraction racemized to D-IMH (chemical racemization) [1]
 | CSCCC1NC(=O)NC1=O [D-MTEH] | 8 | 
 | O=C1NC(=O)[C@@H](Cc2c[nH]c3ccccc23)N1 [D-IMH] | 12 | 
> 5 | CSCCC1NC(=O)NC1=O [L-MTEH] | 7 | 
 | O=C1NC(=O)[C@@H](Cc2ccccc2)N1 [D-BH, D-Benzylhydantoin] | 95 | 
 | O=C1NC(=O)[C@H](Cc2c[nH]c3ccccc23)N1 [L-IMH] | 13 | about 10%
